# Experimental data: PubChem BioAssay (NCI)
#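 Protocol summary: plate cells (96-well), add compound at 5 concentrations, incubate 48 h, interpolate endpoints linearly. TGI is the concentration that stops growth completely.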
# Key:
# Test in all cases: inhibition of tumour cell growth, NCI panel, 48 h
# NCI-H522 lung = system: NCI-H522 lung
# SNB-75 CNS = system: SNB-75 CNS
# SF-268 CNS = system: SF-268 CNS
# HT29 colon = system: HT29 colon
# MDA-N = system: MDA-N
# HCT-15 colon = system: HCT-15 colon
# CCRF-CEM leukemia = system: CCRF-CEM leukemia
# NCI-H23 lung = system: NCI-H23 lung
# MDA-MB-231 breast = system: MDA-MB-231 breast
# UACC-62 melanoma = system: UACC-62 melanoma
# SF-539 CNS = system: SF-539 CNS
# HOP-62 NSCLC = system: HOP-62 NSCLC
# RPMI-8226 leukemia = system: RPMI-8226 leukemia
# A549 NSCLC = system: A549 NSCLC
# OVCAR-5 ovarian = system: OVCAR-5 ovarian
# M14 melanoma = system: M14 melanoma
# EKVX NSCLC = system: EKVX NSCLC
# HL-60(TB) leukemia = system: HL-60(TB) leukemia
# NCI-H226 lung = system: NCI-H226 lung
# DU-145 prostate = system: DU-145 prostate
# SF-295 CNS = system: SF-295 CNS
# KM12 colon = system: KM12 colon
# T-47D breast = system: T-47D breast
# SR leukemia = system: SR leukemia
# HS 578T breast = system: HS 578T breast
# HOP-92 NSCLC = system: HOP-92 NSCLC
# ACHN renal = system: ACHN renal
# MCF7 breast = system: MCF7 breast
# SN12C renal = system: SN12C renal
# HCC-2998 colon = system: HCC-2998 colon
# HCT-116 colon = system: HCT-116 colon
# OVCAR-8 ovarian = system: OVCAR-8 ovarian
# COLO 205 colon = system: COLO 205 colon
# U251 CNS = system: U251 CNS
# SW-620 colon = system: SW-620 colon
# LOX IMVI melanoma = system: LOX IMVI melanoma
# SNB-19 CNS = system: SNB-19 CNS
# MDA-MB-435 = system: MDA-MB-435
# CAKI-1 renal = system: CAKI-1 renal
# SK-MEL-5 melanoma = system: SK-MEL-5 melanoma
# OVCAR-3 ovarian = system: OVCAR-3 ovarian
# MOLT-4 leukemia = system: MOLT-4 leukemia
# 786-0 renal = system: 786-0 renal
# TK-10 renal = system: TK-10 renal
# SK-OV-3 ovarian = system: SK-OV-3 ovarian
# RXF 393 renal = system: RXF 393 renal
# OVCAR-4 ovarian = system: OVCAR-4 ovarian
# UACC-257 melanoma = system: UACC-257 melanoma
# NCI/ADR-RES ovarian = system: NCI/ADR-RES ovarian
# PC-3 prostate = system: PC-3 prostate
# SK-MEL-28 melanoma = system: SK-MEL-28 melanoma
# K-562 leukemia = system: K-562 leukemia
# NCI-H460 lung = system: NCI-H460 lung
# IGROV1 ovarian = system: IGROV1 ovarian
# MALME-3M melanoma = system: MALME-3M melanoma
# UO-31 renal = system: UO-31 renal
# A498 renal = system: A498 renal
# SK-MEL-2 melanoma = system: SK-MEL-2 melanoma
smiles,measurement,setting,value
COC(=O)/C=C\c1ccc2c(c1)CC1(C2)Cc2ccc(/C=C/C(=O)OC)cc2C1 (stereo unspecified),TGI,NCI-H522 lung,> 31.6 µM
same,TGI,SNB-75 CNS,> 100 µM
same,TGI,SF-268 CNS,> 100 µM
same,TGI,HT29 colon,> 31.6 µM
same,TGI,MDA-N,> 31.6 µM
same,TGI,HCT-15 colon,> 31.6 µM
same,TGI,CCRF-CEM leukemia,> 31.6 µM
same,TGI,NCI-H23 lung,> 31.6 µM
same,TGI,MDA-MB-231 breast,> 31.6 µM
same,TGI,UACC-62 melanoma,> 31.6 µM
same,TGI,SF-539 CNS,> 31.6 µM
same,TGI,HOP-62 NSCLC,25.3 µM
same,TGI,RPMI-8226 leukemia,> 31.6 µM
same,TGI,A549 NSCLC,> 31.6 µM
same,TGI,OVCAR-5 ovarian,> 31.6 µM
same,TGI,M14 melanoma,> 31.6 µM
same,TGI,EKVX NSCLC,> 31.6 µM
same,TGI,HL-60(TB) leukemia,> 31.6 µM
same,TGI,NCI-H226 lung,> 31.6 µM
same,TGI,DU-145 prostate,> 100 µM
same,TGI,SF-295 CNS,> 31.6 µM
same,TGI,KM12 colon,> 31.6 µM
same,TGI,T-47D breast,> 31.6 µM
same,TGI,SR leukemia,> 31.6 µM
same,TGI,HS 578T breast,> 31.6 µM
same,TGI,HOP-92 NSCLC,> 31.6 µM
same,TGI,ACHN renal,> 31.6 µM
same,TGI,MCF7 breast,> 31.6 µM
same,TGI,SN12C renal,> 31.6 µM
same,TGI,HCC-2998 colon,> 31.6 µM
same,TGI,HCT-116 colon,> 31.6 µM
same,TGI,OVCAR-8 ovarian,> 31.6 µM
same,TGI,COLO 205 colon,> 31.6 µM
same,TGI,U251 CNS,> 31.6 µM
same,TGI,SW-620 colon,> 100 µM
same,TGI,LOX IMVI melanoma,> 31.6 µM
same,TGI,SNB-19 CNS,> 100 µM
same,TGI,MDA-MB-435,> 31.6 µM
same,TGI,CAKI-1 renal,> 100 µM
same,TGI,SK-MEL-5 melanoma,> 31.6 µM
same,TGI,OVCAR-3 ovarian,> 31.6 µM
same,TGI,MOLT-4 leukemia,> 31.6 µM
same,TGI,786-0 renal,> 31.6 µM
same,TGI,TK-10 renal,> 31.6 µM
same,TGI,SK-OV-3 ovarian,> 31.6 µM
same,TGI,RXF 393 renal,> 31.6 µM
same,TGI,OVCAR-4 ovarian,> 31.6 µM
same,TGI,UACC-257 melanoma,> 31.6 µM
same,TGI,NCI/ADR-RES ovarian,> 31.6 µM
same,TGI,PC-3 prostate,> 31.6 µM
same,TGI,SK-MEL-28 melanoma,> 100 µM
same,TGI,K-562 leukemia,> 31.6 µM
same,TGI,NCI-H460 lung,> 100 µM
same,TGI,IGROV1 ovarian,> 31.6 µM
same,TGI,MALME-3M melanoma,> 31.6 µM
same,TGI,UO-31 renal,> 31.6 µM
CC(C)[Si](OC12CCC(CC1O)CC2C(=O)O)(C(C)C)C(C)C (stereo unspecified),TGI,SNB-75 CNS,28.1 µM
same,TGI,SF-268 CNS,27.9 µM
same,TGI,HT29 colon,26.8 µM
same,TGI,MDA-N,39.7 µM
same,TGI,HCT-15 colon,24.8 µM
same,TGI,CCRF-CEM leukemia,70 µM
same,TGI,NCI-H23 lung,34.7 µM
same,TGI,MDA-MB-231 breast,38 µM
same,TGI,UACC-62 melanoma,27.6 µM
same,TGI,SF-539 CNS,> 100 µM
same,TGI,HOP-62 NSCLC,27.5 µM
same,TGI,RPMI-8226 leukemia,58.3 µM
same,TGI,A549 NSCLC,28.3 µM
same,TGI,OVCAR-5 ovarian,30 µM
same,TGI,M14 melanoma,29.3 µM
same,TGI,HL-60(TB) leukemia,6.87 µM
same,TGI,NCI-H226 lung,31.6 µM
same,TGI,A498 renal,31 µM
same,TGI,DU-145 prostate,33.7 µM
same,TGI,SF-295 CNS,29.2 µM
same,TGI,KM12 colon,26.2 µM
same,TGI,T-47D breast,37.5 µM
same,TGI,SR leukemia,> 100 µM
same,TGI,HOP-92 NSCLC,27.4 µM
same,TGI,ACHN renal,29.1 µM
same,TGI,MCF7 breast,31.7 µM
same,TGI,SN12C renal,> 100 µM
same,TGI,HCT-116 colon,23.8 µM
same,TGI,SK-MEL-2 melanoma,27.7 µM
same,TGI,OVCAR-8 ovarian,42.4 µM
same,TGI,COLO 205 colon,59.2 µM
same,TGI,U251 CNS,31.4 µM
same,TGI,SW-620 colon,41.9 µM
same,TGI,SNB-19 CNS,29.1 µM
same,TGI,MDA-MB-435,31.8 µM
same,TGI,CAKI-1 renal,36.4 µM
same,TGI,SK-MEL-5 melanoma,51.6 µM
same,TGI,OVCAR-3 ovarian,28 µM
same,TGI,MOLT-4 leukemia,> 100 µM
same,TGI,786-0 renal,26.8 µM
same,TGI,TK-10 renal,17.1 µM
same,TGI,SK-OV-3 ovarian,27.2 µM
same,TGI,OVCAR-4 ovarian,25.1 µM
same,TGI,UACC-257 melanoma,36.5 µM
same,TGI,NCI/ADR-RES ovarian,33.6 µM
same,TGI,PC-3 prostate,25 µM
same,TGI,SK-MEL-28 melanoma,24.2 µM
same,TGI,K-562 leukemia,> 100 µM
same,TGI,NCI-H460 lung,20.2 µM
same,TGI,UO-31 renal,26 µM
